“And” between values parts separate entries of the source, which are not always exact repeats. Equal entries are not always repeated.
Tested on: Trinitrobenzenesulfonic Acid (TNBS) Rat Model of Colonic Inflammation
Assay: Trinitrobenzenesulfonic acid (TNBS) rat model of colonic inflammation, oral treatment Days 1-6, evaluation Day 7
Assay type: in vivo, Sprague-Dawley rats
Design: key to Average Colonic Score: sum of adhesions, strictures, ulcers and wall thickness scores
Experimental: In Vivo Efficacy of PDE4 Inhibitor Prodrug in the Trinitrobenzenesulfonic Acid (TNBS) Rat Model of Colonic Inflammation
2. 1.62 g of prodrug from Example 2 (WB301), lot 2 (MW 587.12) in a clear 20 mL glass vial (orange material) which was stored at 4-8° C.
38 Sprague-Dawley rats (Harlan Sprague-Dawley, Inc. male, PO #599229, R #3450, 200-220 g) were received, individually examined and housed in nine cages of four rats each and one cage containing two rats. No clinical signs of disease or distress were observed. The rats were placed in quarantine with daily inspections. The rats were ear notched (SOP 800) for identification purposes, weighed (RESULTS), and sorted into four treatment groups of eight rats each based upon average body weight. The rats were individually examined and found to be free of any clinical signs of disease or distress. No deaths were recorded during the quarantine period. The rats were released to routine maintenance.
A 16 mg/ml TNBS solution was prepared be adding 2.729 ml picrylsulfonic acid solution (1 M, FLU KA, Cat. 92822, lot CDBB6609V) to 22.271 ml de-ionized water (dH20) and 25 ml 100% ethanol (200 proof, Sigma, Cat. E7023, lot SHBH3633V).
The rats were weighed (RESULTS), anesthetized (SOP1810) and Groups 1-4 were intra-rectally instilled with 4 ml/kg TNBS solution (64 mg/kg), the anus was pinched closed and the rat held inverted for one minute.
400 mg (-)riboflavin was dissolved in 40 ml DMSO (Sigma, Cat. D5879, lot 16K0127) by sonication in a 40° C. water bath for 20 minutes in an amber glass bottle, followed by storage at room temperature overnight to prepare a 10 mg/ml yellow solution.
135 mg NaOH (Fisher Scientific, Cat. S320, lot 066620) was dissolved in 100 ml dH2O to prepare a 1.35 mg/ml solution. 128.46 mg prednisolone 21-hemisuccinate sodium salt (Sigma, Cat. P4153, lot BCBB6136V, salt factor 1.339) was dissolved in 9.59 ml (-)riboflavin/DMSO followed by addition of 9.59 ml PEG400 (Sigma, Cat. 91893, lot BCBB7720). 28.781 aqueous NaOH was added with sonication to prepare a 2 mg/ml solution for Group 4. 44 mg WB301 was vortexed in 2.19 ml (-)riboflavin/DMSO to yield an orange solution followed by addition of 2.19 ml PEG400. 6.621 ml aqueous NaOH was added with sonication to prepare a 4 mg/ml solution for Group 1. 132 mg WB301 was vortexed in 2.19 ml (-)riboflavin/DMSO to yield an orange solution followed by addition of 2.19 ml PEG400. 6.621 ml aqueous NaOH was added with sonication to prepare a 12 mg/ml solution for Group 2. 6.6 mg apremilast was vortexed in 2.2 ml (-)riboflavin/DMSO to yield an orange solution followed by addition of 6.6 ml PEG400. 2.2 ml dH2O was added to prepare a 0.6 mg/ml solution for Group 3.
The rats were weighed (RESULTS) and daily oral (PO, SOP 1651) dosing at 5 ml/kg was initiated as in TABLE 1.
The rats were weighed (RESULTS) and the animals were dosed as described above daily. WB301 and apremilast solutions were prepared fresh daily as described above.
The rats were weighed (RESULTS) anesthetized, a midline incision was made in the abdomen and the colon was evaluated for adhesions and stricture (RESULTS). The colon was removed and the length recorded (RESULTS). A midline incision was made the entire length of the colon, the contents removed and the colon weight and colon wall thickness recorded (RESULTS). A section of the colon was preserved in 20 volumes of 10% neutral buffered formalin (Richard-Allan Scientific, Cat. 5701, lot 378532, exp07/2020). The carcasses were disposed of.
3) involving several bowel loops=2
4) severe, proximal dilatation=3
2) linear ulceration <1 cm=1
3) two linear ulcers <1 cm=2
4) more sites of ulceration or one large ulcer=3

[1] = group mean, Group 3, 3 mg/kg PO daily, Day 7
[2] = group mean, Group 3, 3 mg/kg PO daily, Day 7, score 0-2
[3] = group mean, Group 3, 3 mg/kg PO daily, Day 7, score 0-3
[4] = individual rats, Group 3, 3 mg/kg PO daily, Day 7

With `CCOc1cc([C@@H](CS(C)(=O)=O)N2C(=O)c3cccc(NC(C)=O)c3C2=O)ccc1OC` [Apremilast, apremilast, reference compound] the macroscopic disease scores (Group 3, 3 mg/kg daily oral) was “improvement of the macroscopic disease scores”, the “study day on which rats began to recover from TNBS-induced weight loss” value (Group 3, 3 mg/kg daily oral) was 6 days and the “reduction in overall colonic score” value (Group 3, 3 mg/kg daily oral, assuming a colonic score of 10 for vehicle-treated rats) was 25%. The body weight loss (Group 3, 3 mg/kg daily oral, through DAY 5) was 11%, the “Average # Ulcers” value [1] was 1 and the “Average Colon Length” value [1] was 13.1 cm. The “Average Colon Weight” value [1] was 4.793 g, the “Average Colonic Score” value [1] was 7.6 and the “Average Ratio (colon length/colon weight)” value [1] was 3.470 cm/g. The “Average Ulcer Length” value [1] was 6.3 cm, the “Average Wall Thickness” value [1] was 3.0 mm and the “Average Adhesions” value [2] was 1.3. For the same molecule, the “Average Colon Wall Thickness, score” value [2] was 1.5, the “Average Strictures” value [3] was 1.9 and the “Average Ulcers, score” value [3] was 3.0. For the same molecule, the “Average Rat Weight” value (group mean, Group 3, 3 mg/kg PO daily, study day 0, day of TNBS, before dosing) was 214 g, the “Average Rat Weight” value (group mean, Group 3, 3 mg/kg PO daily, study day 1, before first dose) was 207 g and the “Average Rat Weight” value (group mean, Group 3, 3 mg/kg PO daily, study day 2) was 198 g. The “Average Rat Weight” value (group mean, Group 3, 3 mg/kg PO daily, study day 3) was 195 g, the “Average Rat Weight” value (group mean, Group 3, 3 mg/kg PO daily, study day 4) was 190 g and the “Average Rat Weight” value (group mean, Group 3, 3 mg/kg PO daily, study day 5) was 190 g. The “Average Rat Weight” value (group mean, Group 3, 3 mg/kg PO daily, study day 6) was 194 g, the “Average Rat Weight” value (group mean, Group 3, 3 mg/kg PO daily, study day 7) was 201 g and the “Average Rat Weight” value (group mean, Group 3, 3 mg/kg PO daily, study day −3, before TNBS and dosing) was 215 g. The “# Ulcers” value [4] was 1, the “Colon Length” value [4] was 10.0 cm and 15.5 cm and 12.0 cm (2×) and 11.5 cm and 13.0 cm and 15.0 cm and 16.0 cm and the “Colon Weight” value [4] was 3.608 g and 7.577 g and 2.860 g and 3.000 g and 4.462 g and 9.199 g and 6.085 g and 1.550 g. For the same molecule, the “Ratio (colon length/colon weight)” value [4] was 2.772 cm/g and 2.046 cm/g and 4.196 cm/g and 3.833 cm/g and 2.913 cm/g and 1.631 cm/g and 2.629 cm/g and 7.742 cm/g, the “Ulcer Length” value [4] was 6.5 cm (2×) and 5.5 cm and 6.0 cm and 6.4 cm and 8.0 cm and 7.5 cm and 4.0 cm and the “Wall Thickness” value [4] was 2.5 mm (3×) and 3.5 mm (2×) and 3.7 mm and 4.0 mm and 1.5 mm. For the same molecule, the “Colon Wall Thickness, score” value (individual rats, Group 3, 3 mg/kg PO daily, Day 7, less than 1 mm=0, 1-3 mm=1, >3 mm=2) was 1 (4×) and 2 (4×), the “Ulcers, score” value (individual rats, Group 3, 3 mg/kg PO daily, Day 7, none=0, linear ulceration <1 cm=1, two linear ulcers <1 cm=2, more sites or one large ulcer=3) was 3 and the Strictures (individual rats, Group 3, 3 mg/kg PO daily, Day 7, score none=0, mild=1, moderate=2, severe, proximal dilatation=3) was 1 (3×) and 3 (4×) and 0. The Adhesions (individual rats, Group 3, 3 mg/kg PO daily, Day 7, score none=0, minimal=1, involving several bowel loops=2) was 1 (4×) and 2 (3×) and 0, the “Colonic Score” value (individual rats, Group 3, 3 mg/kg PO daily, Day 7, sum of adhesions, strictures, ulcers and wall thickness scores) was 6 and 10 (2×) and 7 (2×) and 8 and 9 and 4 and the “Rat Weight” value (individual rats, Group 3, 3 mg/kg PO daily, study day 0, day of TNBS, before dosing) was 218 g and 213 g and 206 g and 220 g and 205 g and 217 g (2×) and 214 g. For the same molecule, the “Rat Weight” value (individual rats, Group 3, 3 mg/kg PO daily, study day 1, before first dose) was 210 g and 213 g and 198 g and 214 g (2×) and 197 g and 204 g and 206 g, the “Rat Weight” value (individual rats, Group 3, 3 mg/kg PO daily, study day 2) was 198 g and 203 g (2×) and 183 g and 187 g and 205 g and 193 g and 214 g and the “Rat Weight” value (individual rats, Group 3, 3 mg/kg PO daily, study day 3) was 190 g and 200 g and 180 g (2×) and 198 g (2×) and 187 g and 225 g. The “Rat Weight” value (individual rats, Group 3, 3 mg/kg PO daily, study day 4) was 187 g (2×) and 200 g and 170 g and 188 g and 173 g and 183 g and 234 g, the “Rat Weight” value (individual rats, Group 3, 3 mg/kg PO daily, study day 5) was 189 g and 200 g and 167 g and 182 g (2×) and 172 g and 185 g and 244 g and the “Rat Weight” value (individual rats, Group 3, 3 mg/kg PO daily, study day 6) was 212 g and 202 g and 163 g and 176 g and 172 g and 186 g and 188 g and 250 g. For the same molecule, the “Rat Weight” value (individual rats, Group 3, 3 mg/kg PO daily, study day 7) was 236 g and 210 g and 178 g (2×) and 177 g and 179 g and 194 g and 256 g and the “Rat Weight” value (individual rats, Group 3, 3 mg/kg PO daily, study day −3, before TNBS and dosing) was 218 g and 212 g and 210 g and 219 g and 209 g and 220 g and 217 g and 213 g.
For `Nc1ccc(O)c(C(=O)O)c1` [Example 5-ASA, 5-aminosalacyclic acid, reference compound], the “activity in the TNBS model” value (rat TNBS model, stated without data) was “inactive”.

Reference: US11639332B2, “Methods and compositions of isoindoline-1,3-dione and isoindole prodrugs useful for treating cancer, ulcerative colitis and related inflammatory diseases” (AMGEN (EUROPE) GMBH, priority 2018, dated 2023)
